Results published in ChEMBL document CHEMBL3400069, “The amide linker in nonpeptide neurotensin receptor ligands plays a key role in calcium signaling at the neurotensin receptor type 2” (Bioorg Med Chem Lett, 2015).
Active and inactive are the calls of the source. The calls are words filed in the database; no cut-off is given here.

Assays:
[1] = target: T1, Neurotensin receptor type 2 (Rattus norvegicus, UniProt Q63384); assay: Displacement of [I125]neurotensin from rat NTS2 overexpressed in CHO-k1 cells by competitive binding Assay; type: cell-based
T1 sequence (Q63384 whole entry): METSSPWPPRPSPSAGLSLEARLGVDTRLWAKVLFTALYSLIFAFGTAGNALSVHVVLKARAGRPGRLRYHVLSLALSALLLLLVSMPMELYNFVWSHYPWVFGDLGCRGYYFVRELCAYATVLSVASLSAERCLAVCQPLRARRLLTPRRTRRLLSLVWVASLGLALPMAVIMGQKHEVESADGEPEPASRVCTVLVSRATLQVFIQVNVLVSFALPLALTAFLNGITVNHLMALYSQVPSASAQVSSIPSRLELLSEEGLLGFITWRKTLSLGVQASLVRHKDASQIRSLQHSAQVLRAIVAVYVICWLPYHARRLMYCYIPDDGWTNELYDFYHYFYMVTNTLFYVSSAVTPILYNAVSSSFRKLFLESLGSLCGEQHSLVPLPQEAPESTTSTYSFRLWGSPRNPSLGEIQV

[2] = target: T1, Neurotensin receptor type 2; assay: Agonist activity at rat NTS2 overexpressed in CHO-k1 cells assessed as calcium mobilization by FLIPR assay; type: functional, cell-based
[3] = target: T2, Neurotensin receptor type 2 (Rattus norvegicus) (UniProt Q63384); assay: Agonist activity at rat NTS2 overexpressed in CHO-k1 cells assessed as calcium mobilization by FLIPR assay relative to SR142948a; type: functional, cell-based
T2 sequence (whole entry): T1 sequence (Q63384 whole entry)

[4] = target: Neurotensin receptor type 1 (Rattus norvegicus) (UniProt P20789); assay: Antagonist activity at rat NTS1 overexpressed in CHO-k1 cells assessed as blockade of neurotensin-mediated calcium mobilization after 15 mins by FLIPR assay; type: functional, cell-based
Chain of Neurotensin receptor type 1 (Rattus norvegicus) (P20789 whole entry): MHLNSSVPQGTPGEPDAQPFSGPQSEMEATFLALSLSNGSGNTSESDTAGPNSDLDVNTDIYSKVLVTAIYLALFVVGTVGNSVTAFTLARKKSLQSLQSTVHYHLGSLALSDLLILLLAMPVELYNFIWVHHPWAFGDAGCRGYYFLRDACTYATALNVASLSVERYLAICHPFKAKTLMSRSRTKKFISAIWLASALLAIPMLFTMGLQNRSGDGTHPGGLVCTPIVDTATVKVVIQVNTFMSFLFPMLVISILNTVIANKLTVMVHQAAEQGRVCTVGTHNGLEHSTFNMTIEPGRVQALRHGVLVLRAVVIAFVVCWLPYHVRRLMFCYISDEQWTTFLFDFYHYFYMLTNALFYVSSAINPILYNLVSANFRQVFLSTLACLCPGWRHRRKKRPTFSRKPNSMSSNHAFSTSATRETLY

[5] = target: Neurotensin receptor type 1 (Rattus norvegicus, UniProt P20789); assay: Displacement of [I125]neurotensin from rat NTS1 overexpressed in CHO-k1 cells by competitive binding Assay; type: cell-based
Chain of Neurotensin receptor type 1 (P20789 whole entry): as above

| Compound | Ki [1] | EC50 ([2]; read-out: EC50) | Emax [3] | Ke [4] | Ki [5] | EC50 ([2]; cho-k1) |
| --- | --- | --- | --- | --- | --- | --- |
| COc1ccccc1-c1cc(NC(=O)C2(C(=O)O)CCCCC2)nn1-c1ccc(F)cc1 | 6.34 µM | 0.951 µM | 13% | inactive | > 25 µM |  |
| COc1cccc(OC)c1-c1cc(NC(=O)C2(C(=O)O)CCCCC2)nn1-c1cccc2ccccc12 | 0.128 µM |  |  |  | 10.2 µM | Not Active |
| COc1cccc(OC)c1-c1cc(C(=O)NC2(C(=O)O)CCCCC2)nn1-c1ccnc2cc(Cl)ccc12 |  |  |  |  | 0.177 µM |  |
| COc1cccc(OC)c1-c1cc(C(=O)NC2(C(=O)O)CCCCC2)nn1-c1cccc2ccccc12 |  |  |  |  | 1.21 µM |  |
| COc1cccc(OC)c1-c1cc(NC(=O)C2(C(=O)O)CCCCC2)nn1-c1ccc(F)cc1 | 0.271 µM | 0.055 µM | 10% | inactive | > 25 µM |  |
| COc1ccccc1-c1cc(C(=O)NC2(C(=O)O)CCCCC2)nn1-c1ccc(F)cc1 |  |  |  |  | > 25 µM |  |
| COc1cccc(OC)c1-c1cc(NC(=O)C2(C(=O)O)CCCCC2)nn1-c1ccnc2cc(Cl)ccc12 | 0.14 µM |  |  |  | 7.18 µM | Not Active |
| COc1cccc(OC)c1-c1cc(CN[C@H](C(=O)O)C2CCCCC2)nn1-c1ccnc2cc(Cl)ccc12 | > 10 µM |  |  |  | > 10 µM | Not Active |
